The target of one experiment is T1, 5α reductase (5αR) (Canis lupus familiaris, UniProt A0A8I3NQ64).
T1 construct: raw extract of dog prostate; from tissue; host or cells: dog prostate, raw extract
T1 sequence (A0A8I3NQ64 1-254): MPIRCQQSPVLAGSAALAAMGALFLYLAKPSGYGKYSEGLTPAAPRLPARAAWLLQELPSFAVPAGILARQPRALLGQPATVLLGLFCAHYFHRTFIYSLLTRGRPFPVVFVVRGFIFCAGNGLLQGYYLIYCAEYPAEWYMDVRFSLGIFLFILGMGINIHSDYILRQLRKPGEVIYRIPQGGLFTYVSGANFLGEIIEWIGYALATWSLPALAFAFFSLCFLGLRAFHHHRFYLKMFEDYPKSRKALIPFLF
Kind of experiment: Inhibitor effect on 5α reductase of dog prostate extract (radio-chemical method). To be noted: 0.1 mM. It is filed as biochemical. An excerpt:
It is known that enzymes of the type 5α reductase (5αR) transform testosterone into 17β-hydrosy-5α-androstan-3-one or […]. This reaction is crucial in the action of androgens. These enzymes are present in the keratinocytes of the epidermis, in the fibroblasts of the dermis, and in the sebaccous glands in particular.
Solutions of the product were created at five times the final concentration used in the reaction, in a citrate-phosphate buffer at 0.1 M and pH=5.6 (buffer used in the 5αR reaction). The 5αR reference inhibitor was finasteride (Chibro-Prosacar®, in 5 mg tablets), and tested at the concentration of 500 μg/ml after dilution in the citrate-phosphate buffer at 0.1 M.
The enzymatic extract used was a raw extract of dog prostate prepared in a tris buffer of 0.1 M/sucrose 20%, pH=7.5. The sample was calibrated in such a way as to transform approximately 0.1 pmole of testosterone with 50 μl of extract (being an arbitrary unit of the enzyme).
The mixtures were incubated for 4 hours at 37° C., then the testosterone and the derivatives formed were extracted by 500 μl of dichloromethane. The fraction of dichloromethane was drawn off, dried under a nitrogen flow, and chromatographed on silica in a dichloromethane/ethyl acetate/methanol system (proportions 85:15:3). The plates obtained were autoradiographed on Kodak MP® films.
The evaluation of the quantity of testosterone transformed was carried out after sectioning the products formed and counting them in liquid scintillation.

Another experiment has as its system Micrococcus kristinae. Kind of experiment: microbe, parasite or virus in culture. It is filed as cell-based. The following applies: Rothia kristinae, 48 h, read-out: Factor of increase of the quantity of M. kristinae. Here is the method: (§1) Second In Vitro Test Establishing an Effect on Pathogenic and Non-pathogenic Flora
(§2) The effects of an oligosaccharide of a degree of polymerisation close to 10 according to the said first method, and of a chelate of this oligosaccharide+Zn, were evaluated on the non-pathogenic strain Micrococcus kristinae, the pathogenic strain Staphylococcus aureus, and the pathogenic strain Propionibacterium acnes. This latter strain is particularly involved in the irritations occurring in the course of cutaneous acne infections.
(§3) The bacteria are cultured in a saline medium (5.6 g/l of NaCl 2.812 g/l of KH2 PO4), containing pancreatic peptone (5.625 g/l) and extracts of heart/brain (9.843 g/l). The strains M. kristinae and S. aureus are cultured in an aerobic medium, and the strain P. acnes is cultured in an anaerobic medium, either in the presence of 5 g/l of glucose (traditional carbonaceous source) or in the presence of a product according to the invention (oligosaccharide of degree of polymerisation close to 10 alone, or this oligosaccharide forming a chelate with zinc), or in the presence of the medium alone (control cultures). The quantity of bacteria being cultured is evaluated after 48 hours of culturing by turbidimetry at 750 nm.

In the next experiment the test system is Propionibacterium acnes. Put plainly: microbe, parasite or virus in culture. Format: cell-based. To be noted: Cutibacterium acnes, 48 h, read-out: Factor of increase of the quantity of P. acnes. The method, then:
as §1, §2, §3

The test system of a further experiment is Staphylococcus aureus. Kind of experiment: microbe, parasite or virus in culture. To be noted: 48 h, read-out: Factor of increase of the quantity of S. aureus. Format: cell-based. Here is the method: as §1, §2, §3

Several values for one entry are separate records, joined by “and”; a condition that tells them apart may be missing. Equal entries are not always repeated.

Consider `CC(C)(C)NC(=O)[C@H]1CC[C@H]2[C@@H]3CC[C@H]4NC(=O)C=C[C@]4(C)[C@H]3CC[C@]12C` [finasteride], for which, on 5α reductase (5αR), the “Mean (cpm total)” value came out at 1080 cpm, the “Mean e - T” value is 647 cpm and 100 µM produced 85% inhibition. For the same compound, on 5α reductase (5αR) (listed as F), the “cpm ASD” value is 880 cpm and 748 cpm and 647 cpm; the “cpm DHT” value was 343 cpm and 262 cpm and 359 cpm; the cpm total was 1223 cpm and 1010 cpm and 1006 cpm. Besides, the activity at 100 µM on 5α reductase (5αR) (pH 5.6, enzyme control = 100) stood at 15%.

Consider `O=C[C@H](O)[C@@H](O)[C@H](O)[C@H](O)CO` [glucose], for which the fold induction at 5000 µg/mL in the experiment with Micrococcus kristinae came out at 2.2; with Propionibacterium acnes it was 5.2; in the experiment with Staphylococcus aureus, 1.6.

(Values after patent US6207438A, “Method for preparing a product in particular for preventing and curing skin diseases, and resulting product” (priority 1998, dated 2001).)
